Values joined by “and” are separate entries in the source; they are usually repeats but may differ in a detail not shown here. Identical values can stand only once.
Key:
Assay in all cases: radiometric filter-binding kinase assay, Kinaseprofiler
MAPK12 (human) = MAPK12 (human) (UniProt P53778); details: ATP 15 µM
PRKCZ (human) = PRKCZ (human) (UniProt Q05513); details: ATP 15 µM
TNK2 (human) = TNK2 (human) (UniProt Q07912); details: ATP 70 µM
PRKG1 (human) = PRKG1 (human) (UniProt Q13976); details: ATP 90 µM
CSNK1G1 (human) = CSNK1G1 (human) (UniProt Q9HCP0); details: ATP 15 µM
RPS6KA3 KD1 KD2 (human) = RPS6KA3 KD1 KD2 (human) (UniProt P51812); details: ATP 10 µM
FGFR3 (human) = FGFR3 (human) (UniProt P22607); details: ATP 15 µM
CAMK2G (human) = CAMK2G (human) (UniProt Q13555); details: ATP 10 µM
PRKCB1 (human) = PRKCB1 (human) (UniProt P05771); details: ATP 10 µM
[1] = tested on: GSK3A (human), P49840 [S449A]; details: ATP 10 µM
CLK3 (human) = CLK3 (human) (UniProt P49761); details: ATP 90 µM
STK10 (human) = STK10 (human) (UniProt O94804); details: ATP 200 µM
[2] = molecular target: PRKAA1 PRKAB1 PRKAG1 (human) (UniProt P54619+Q13131+Q9Y478); details: ATP 45 µM
GRK5 (human) = GRK5 (human) (UniProt P34947); details: ATP 15 µM
CDC42BPB (human) = CDC42BPB (human) (UniProt Q9Y5S2); details: ATP 10 µM
CDK2 CCNA2 (human) = CDK2 CCNA2 (human) (UniProt P24941+P20248); details: ATP 45 µM
EPHA7 (human) = EPHA7 (human) (UniProt Q15375); details: ATP 90 µM
MARK2 (human) = MARK2 (human) (UniProt Q7KZI7); details: ATP 15 µM
EPHA3 (human) = EPHA3 (human) (UniProt P29320); details: ATP 120 µM
CDK7 CCNH MNAT1 (human) = CDK7 CCNH MNAT1 (human) (UniProt P50613+P51948+P51946); details: ATP 90 µM
WNK3 (human) = WNK3 (human) (UniProt Q9BYP7); details: ATP 200 µM
EPHA5 (human) = EPHA5 (human) (UniProt P54756); details: ATP 10 µM
NEK6 (human) = NEK6 (human) (UniProt Q9HC98); details: ATP 45 µM
TSSK1B (human) = TSSK1B (human) (UniProt Q9BXA7); details: ATP 15 µM
FGFR4 (human) = FGFR4 (human) (UniProt P22455); details: ATP 155 µM
PAK4 (human) = PAK4 (human) (UniProt O96013); details: ATP 10 µM
PRKCG (human) = PRKCG (human) (UniProt P05129); details: ATP 15 µM
[3] = tested on: SGK2 (human), Q9HBY8 [S416D]; details: ATP 15 µM
TYRO3 (human) = TYRO3 (human) (UniProt Q06418); details: ATP 45 µM
HIPK3 (human) = HIPK3 (human) (UniProt Q9H422); details: ATP 15 µM
MKNK2 (human) = MKNK2 (human) (UniProt Q9HBH9); details: ATP 120 µM
STK3 (human) = STK3 (human) (UniProt Q13188); details: ATP 155 µM

Chain of PRKG1 (human) (Q13976 whole entry, looked up): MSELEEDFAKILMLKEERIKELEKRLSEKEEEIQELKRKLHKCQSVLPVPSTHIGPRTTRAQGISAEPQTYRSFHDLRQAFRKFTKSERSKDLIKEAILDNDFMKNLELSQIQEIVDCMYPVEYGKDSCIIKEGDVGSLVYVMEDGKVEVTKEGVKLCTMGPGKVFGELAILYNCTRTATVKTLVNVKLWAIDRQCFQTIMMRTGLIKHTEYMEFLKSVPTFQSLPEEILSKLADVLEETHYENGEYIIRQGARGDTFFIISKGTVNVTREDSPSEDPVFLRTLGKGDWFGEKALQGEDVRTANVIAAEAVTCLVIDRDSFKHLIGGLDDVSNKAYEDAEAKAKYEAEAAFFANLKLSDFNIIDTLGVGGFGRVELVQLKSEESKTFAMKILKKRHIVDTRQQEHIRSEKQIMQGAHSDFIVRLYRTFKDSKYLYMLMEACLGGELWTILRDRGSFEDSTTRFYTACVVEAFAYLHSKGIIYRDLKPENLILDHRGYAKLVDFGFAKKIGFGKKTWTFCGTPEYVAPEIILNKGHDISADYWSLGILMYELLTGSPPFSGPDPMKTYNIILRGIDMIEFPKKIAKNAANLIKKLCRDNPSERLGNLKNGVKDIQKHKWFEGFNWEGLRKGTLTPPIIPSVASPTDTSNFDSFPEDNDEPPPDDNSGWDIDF
Chain of GRK5 (human) (P34947 whole entry, looked up): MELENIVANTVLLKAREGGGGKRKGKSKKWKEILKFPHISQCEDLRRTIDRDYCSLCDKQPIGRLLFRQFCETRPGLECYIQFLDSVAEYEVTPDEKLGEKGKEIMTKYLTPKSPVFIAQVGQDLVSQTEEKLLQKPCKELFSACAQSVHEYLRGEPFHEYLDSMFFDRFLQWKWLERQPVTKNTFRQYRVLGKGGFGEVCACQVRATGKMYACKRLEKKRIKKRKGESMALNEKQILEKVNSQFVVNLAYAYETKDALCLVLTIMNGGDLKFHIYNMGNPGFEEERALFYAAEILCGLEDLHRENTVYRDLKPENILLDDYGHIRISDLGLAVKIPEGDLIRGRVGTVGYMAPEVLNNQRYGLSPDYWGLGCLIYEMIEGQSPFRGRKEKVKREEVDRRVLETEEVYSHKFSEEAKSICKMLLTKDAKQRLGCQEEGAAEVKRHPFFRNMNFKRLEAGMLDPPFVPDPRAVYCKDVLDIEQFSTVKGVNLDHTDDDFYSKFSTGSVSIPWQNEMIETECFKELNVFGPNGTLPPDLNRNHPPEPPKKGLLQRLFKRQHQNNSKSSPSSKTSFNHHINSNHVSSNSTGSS
Chain of RPS6KA3 KD1 KD2 (human) (P51812 whole entry, looked up): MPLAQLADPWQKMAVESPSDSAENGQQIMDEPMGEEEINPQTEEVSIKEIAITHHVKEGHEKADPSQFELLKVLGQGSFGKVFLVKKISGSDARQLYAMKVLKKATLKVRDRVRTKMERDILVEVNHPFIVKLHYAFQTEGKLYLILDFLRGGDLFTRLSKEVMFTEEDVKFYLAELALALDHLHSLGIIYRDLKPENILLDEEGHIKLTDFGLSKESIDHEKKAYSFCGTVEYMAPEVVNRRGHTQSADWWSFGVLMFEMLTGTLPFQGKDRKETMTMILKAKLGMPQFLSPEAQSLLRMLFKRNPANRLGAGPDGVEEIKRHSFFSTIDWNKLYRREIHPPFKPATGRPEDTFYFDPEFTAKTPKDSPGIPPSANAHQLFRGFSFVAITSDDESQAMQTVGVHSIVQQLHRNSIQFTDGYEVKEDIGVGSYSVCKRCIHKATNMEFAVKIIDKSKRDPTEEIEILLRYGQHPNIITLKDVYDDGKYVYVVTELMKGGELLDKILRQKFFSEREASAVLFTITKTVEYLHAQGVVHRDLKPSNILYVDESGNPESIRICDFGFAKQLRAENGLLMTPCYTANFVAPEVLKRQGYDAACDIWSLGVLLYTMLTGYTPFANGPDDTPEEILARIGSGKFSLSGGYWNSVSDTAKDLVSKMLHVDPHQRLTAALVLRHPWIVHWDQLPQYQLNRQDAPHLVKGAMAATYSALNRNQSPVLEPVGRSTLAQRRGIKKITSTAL
Chain of CSNK1G1 (human) (Q9HCP0 whole entry, looked up): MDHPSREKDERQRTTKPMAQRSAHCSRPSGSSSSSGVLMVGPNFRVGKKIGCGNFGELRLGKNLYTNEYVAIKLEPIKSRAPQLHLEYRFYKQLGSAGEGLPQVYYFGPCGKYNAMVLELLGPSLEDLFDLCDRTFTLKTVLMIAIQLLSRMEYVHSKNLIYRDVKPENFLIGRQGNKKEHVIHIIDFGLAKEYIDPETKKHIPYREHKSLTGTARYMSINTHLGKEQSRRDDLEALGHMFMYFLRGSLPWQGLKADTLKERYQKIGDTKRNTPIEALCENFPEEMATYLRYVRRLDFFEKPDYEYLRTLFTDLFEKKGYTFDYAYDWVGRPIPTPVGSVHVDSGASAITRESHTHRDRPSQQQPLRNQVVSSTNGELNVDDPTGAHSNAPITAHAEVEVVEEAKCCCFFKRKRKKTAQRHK
Chain of CDK2 CCNA2 (human) (P20248 whole entry, looked up, other chains not shown): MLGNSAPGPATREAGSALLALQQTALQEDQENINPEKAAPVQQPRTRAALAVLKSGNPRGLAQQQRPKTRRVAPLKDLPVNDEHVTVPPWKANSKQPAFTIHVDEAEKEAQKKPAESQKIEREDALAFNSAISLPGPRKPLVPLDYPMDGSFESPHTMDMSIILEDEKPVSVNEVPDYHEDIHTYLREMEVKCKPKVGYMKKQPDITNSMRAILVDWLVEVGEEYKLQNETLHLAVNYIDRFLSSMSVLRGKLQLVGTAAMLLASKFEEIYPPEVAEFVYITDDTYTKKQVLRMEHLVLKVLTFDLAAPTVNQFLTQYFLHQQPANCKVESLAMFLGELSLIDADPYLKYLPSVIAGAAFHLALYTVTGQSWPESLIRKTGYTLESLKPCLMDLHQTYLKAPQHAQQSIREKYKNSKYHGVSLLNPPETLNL
Chain of GSK3A (human), P49840 [S449A] (P49840 whole entry, looked up, stated change not applied): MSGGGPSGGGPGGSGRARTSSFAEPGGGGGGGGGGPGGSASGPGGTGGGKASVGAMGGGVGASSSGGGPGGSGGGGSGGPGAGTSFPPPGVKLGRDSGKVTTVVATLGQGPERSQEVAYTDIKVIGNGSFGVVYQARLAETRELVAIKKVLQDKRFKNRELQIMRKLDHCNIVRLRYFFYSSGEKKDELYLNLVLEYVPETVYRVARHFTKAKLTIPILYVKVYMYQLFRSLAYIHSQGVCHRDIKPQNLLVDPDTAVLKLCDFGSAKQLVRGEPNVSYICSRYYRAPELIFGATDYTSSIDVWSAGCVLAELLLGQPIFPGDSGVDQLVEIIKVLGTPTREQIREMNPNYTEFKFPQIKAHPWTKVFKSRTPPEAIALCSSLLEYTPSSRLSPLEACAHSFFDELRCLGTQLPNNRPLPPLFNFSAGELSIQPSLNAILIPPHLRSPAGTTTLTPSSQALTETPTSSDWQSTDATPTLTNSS
Chain of MAPK12 (human) (P53778 whole entry, looked up): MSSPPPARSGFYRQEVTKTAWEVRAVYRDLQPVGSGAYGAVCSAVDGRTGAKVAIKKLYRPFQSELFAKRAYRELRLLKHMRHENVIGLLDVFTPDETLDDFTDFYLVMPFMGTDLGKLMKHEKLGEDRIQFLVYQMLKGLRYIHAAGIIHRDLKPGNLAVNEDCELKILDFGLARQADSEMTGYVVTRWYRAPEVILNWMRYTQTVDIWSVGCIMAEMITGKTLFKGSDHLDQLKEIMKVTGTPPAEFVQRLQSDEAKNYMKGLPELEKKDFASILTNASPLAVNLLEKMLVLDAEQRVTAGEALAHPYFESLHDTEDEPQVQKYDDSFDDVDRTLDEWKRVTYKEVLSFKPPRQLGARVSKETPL
Chain of PAK4 (human) (O96013 whole entry, looked up): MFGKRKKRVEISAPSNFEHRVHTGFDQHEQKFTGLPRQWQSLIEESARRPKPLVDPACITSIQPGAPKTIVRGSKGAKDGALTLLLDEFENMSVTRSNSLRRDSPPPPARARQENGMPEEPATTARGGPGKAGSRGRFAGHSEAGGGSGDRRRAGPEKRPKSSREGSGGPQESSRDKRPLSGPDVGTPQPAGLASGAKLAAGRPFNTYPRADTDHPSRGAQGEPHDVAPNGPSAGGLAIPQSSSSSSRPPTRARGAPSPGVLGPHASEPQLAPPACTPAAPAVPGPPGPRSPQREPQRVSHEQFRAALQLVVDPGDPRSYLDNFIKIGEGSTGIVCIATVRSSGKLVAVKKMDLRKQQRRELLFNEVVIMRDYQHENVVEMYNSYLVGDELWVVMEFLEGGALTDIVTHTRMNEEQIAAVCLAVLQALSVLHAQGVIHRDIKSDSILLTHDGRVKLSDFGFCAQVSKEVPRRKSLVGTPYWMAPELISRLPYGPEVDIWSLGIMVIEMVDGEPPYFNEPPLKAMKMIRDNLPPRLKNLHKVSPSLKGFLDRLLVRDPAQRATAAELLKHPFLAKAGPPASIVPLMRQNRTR

- residual activity (MAPK12 (human); compound 1.0 µM): 82%
- residual activity (MAPK12 (human); compound 10.0 µM): 61%
- residual activity (PRKCZ (human); compound 1.0 µM): 110%
- residual activity (PRKCZ (human); compound 10.0 µM): 106%
- residual activity (TNK2 (human); compound 1.0 µM): 50%
- residual activity (TNK2 (human); compound 10.0 µM): 12%
- residual activity (PRKG1 (human); compound 1.0 µM): 90% and 79%
- residual activity (PRKG1 (human); compound 10.0 µM): 60% and 79%
- residual activity (CSNK1G1 (human); compound 1.0 µM): 99%
- residual activity (CSNK1G1 (human); compound 10.0 µM): 48%
- residual activity (RPS6KA3 KD1 KD2 (human); compound 1.0 µM): 54%
- residual activity (RPS6KA3 KD1 KD2 (human); compound 10.0 µM): 32%
- residual activity (FGFR3 (human); compound 1.0 µM): 72%
- residual activity (FGFR3 (human); compound 10.0 µM): 40%
- residual activity (CAMK2G (human); compound 1.0 µM): 37%
- residual activity (CAMK2G (human); compound 10.0 µM): 8%
- residual activity (PRKCB1 (human); compound 1.0 µM): 102%
- residual activity (PRKCB1 (human); compound 10.0 µM): 104%
- residual activity ([1]; compound 1.0 µM): 54%
- residual activity ([1]; compound 10.0 µM): 40%
- residual activity (CLK3 (human); compound 1.0 µM): 72%
- residual activity (CLK3 (human); compound 10.0 µM): 34%
- residual activity (STK10 (human); compound 1.0 µM): 87%
- residual activity (STK10 (human); compound 10.0 µM): 62%
- residual activity ([2]; compound 1.0 µM): 64%
- residual activity ([2]; compound 10.0 µM): 24%
- residual activity (GRK5 (human); compound 1.0 µM): 84%
- residual activity (GRK5 (human); compound 10.0 µM): 63%
- residual activity (CDC42BPB (human); compound 1.0 µM): 90%
- residual activity (CDC42BPB (human); compound 10.0 µM): 95%
- residual activity (CDK2 CCNA2 (human); compound 1.0 µM): 59%
- residual activity (CDK2 CCNA2 (human); compound 10.0 µM): 36%
- residual activity (EPHA7 (human); compound 1.0 µM): 80%
- residual activity (EPHA7 (human); compound 10.0 µM): 41%
- residual activity (MARK2 (human); compound 1.0 µM): 55%
- residual activity (MARK2 (human); compound 10.0 µM): 12%
- residual activity (EPHA3 (human); compound 1.0 µM): 75%
- residual activity (EPHA3 (human); compound 10.0 µM): 48%
- residual activity (CDK7 CCNH MNAT1 (human); compound 1.0 µM): 75%
- residual activity (CDK7 CCNH MNAT1 (human); compound 10.0 µM): 24%
- residual activity (WNK3 (human); compound 1.0 µM): 87%
- residual activity (WNK3 (human); compound 10.0 µM): 77%
- residual activity (EPHA5 (human); compound 1.0 µM): 115%
- residual activity (EPHA5 (human); compound 10.0 µM): 63%
- residual activity (NEK6 (human); compound 1.0 µM): 107%
- residual activity (NEK6 (human); compound 10.0 µM): 101%
- residual activity (TSSK1B (human); compound 1.0 µM): 75%
- residual activity (TSSK1B (human); compound 10.0 µM): 49%
- residual activity (FGFR4 (human); compound 1.0 µM): 110%
- residual activity (FGFR4 (human); compound 10.0 µM): 89%
- residual activity (PAK4 (human); compound 1.0 µM): 88%
- residual activity (PAK4 (human); compound 10.0 µM): 45%
- residual activity (PRKCG (human); compound 1.0 µM): 73%
- residual activity (PRKCG (human); compound 10.0 µM): 30%
- residual activity ([3]; compound 1.0 µM): 71%
- residual activity ([3]; compound 10.0 µM): 33%
- residual activity (TYRO3 (human); compound 1.0 µM): 97%
- residual activity (TYRO3 (human); compound 10.0 µM): 81%
- residual activity (HIPK3 (human); compound 1.0 µM): 73%
- residual activity (HIPK3 (human); compound 10.0 µM): 19%
- residual activity (MKNK2 (human); compound 1.0 µM): 43%
- residual activity (MKNK2 (human); compound 10.0 µM): 10%
- residual activity (STK3 (human); compound 1.0 µM): 16%
- residual activity (STK3 (human); compound 10.0 µM): 10%
SMILES: O=C1c2ccccc2-c2n[nH]c3cccc1c23

— the kinase profiling compilation of Christmann-Franck et al. (2016)
